Source: article PMC4832243, “Discovery of Potent VEGFR-2 Inhibitors based on Furopyrimidine and Thienopyrimidne Scaffolds as Cancer Targeting Agents” (Scientific Reports, 2016)

Tests used:
[1] = system: A498; experiment: NCI 60 cell line panel (SRB), A498; format: cell-based; conditions: Homo sapiens; A498, Renal Cancer; single dose of 10 μM; read-out: Cell Growth Percent
[2] = system: HCC-2998; experiment: NCI 60 cell line panel (SRB), HCC-2998; format: cell-based; conditions: Homo sapiens; HCC-2998, Colon Cancer; single dose of 10 μM; read-out: Cell Growth Percent
[3] = target: T1, VEGFR-2 (KDR) (Homo sapiens, UniProt P35968); experiment: In vitro VEGFR-2 tyrosine kinase activity (Kinase-Glo Plus luminescence, BPS Bioscience); format: biochemical; conditions: single dose concentration of 10 μM
T1 construct: purchased BPS Bioscience 40301

[4] = system: M14; experiment: NCI 60 cell line panel (SRB), M14; format: cell-based; conditions: Homo sapiens; M14, Melanoma; single dose of 10 μM; read-out: Cell Growth Percent
[5] = system: MALME-3M; experiment: NCI 60 cell line panel (SRB), MALME-3M; format: cell-based; conditions: Homo sapiens, Melanoma, single dose of 10 μM, read-out: Cell Growth Percent
[6] = system: CAKI-1; experiment: NCI 60 cell line panel (SRB), CAKI-1; format: cell-based; conditions: Homo sapiens; CAKI-1, Renal Cancer; single dose of 10 μM; read-out: Cell Growth Percent
[7] = system: OVCAR-3; experiment: NCI 60 cell line panel (SRB), OVCAR-3; format: cell-based; conditions: Homo sapiens; OVCAR-3, Ovarian Cancer; single dose of 10 μM; read-out: Cell Growth Percent
[8] = system: MDA-MB-231/ATCC; experiment: NCI 60 cell line panel (SRB), MDA-MB-231/ATCC; format: cell-based; conditions: Homo sapiens, Breast Cancer, single dose of 10 μM, read-out: Cell Growth Percent
[9] = system: SK-MEL-2; experiment: NCI 60 cell line panel (SRB), SK-MEL-2; format: cell-based; conditions: Homo sapiens; SK-MEL-2, Melanoma; single dose of 10 μM; read-out: Cell Growth Percent
[10] = system: MDA-MB-435; experiment: NCI 60 cell line panel (SRB), MDA-MB-435; format: cell-based; conditions: Homo sapiens; MDA-MB-435, Melanoma; single dose of 10 μM; read-out: Cell Growth Percent
[11] = system: SNB-19; experiment: NCI 60 cell line panel (SRB), SNB-19; format: cell-based; conditions: Homo sapiens; SNB-19, CNS Cancer; single dose of 10 μM; read-out: Cell Growth Percent
[12] = system: SF-295; experiment: NCI 60 cell line panel (SRB), SF-295; format: cell-based; conditions: Homo sapiens; SF-295, CNS Cancer; single dose of 10 μM; read-out: Cell Growth Percent
[13] = system: HT29; experiment: NCI 60 cell line panel (SRB), HT29; format: cell-based; conditions: Homo sapiens, HT-29; HT29, Colon Cancer; single dose of 10 μM; read-out: Cell Growth Percent
[14] = system: SR; experiment: NCI 60 cell line panel (SRB), SR; format: cell-based; conditions: Homo sapiens, Leukemia, single dose of 10 μM, read-out: Cell Growth Percent
[15] = system: MOLT-4; experiment: NCI 60 cell line panel (SRB), MOLT-4; format: cell-based; conditions: Homo sapiens; MOLT-4, Leukemia; single dose of 10 μM; read-out: Cell Growth Percent
[16] = system: EKVX; experiment: NCI 60 cell line panel (SRB), EKVX; format: cell-based; conditions: Homo sapiens, Non-Small Cell Lung Cancer, single dose of 10 μM, read-out: Cell Growth Percent
[17] = system: MCF7; experiment: NCI 60 cell line panel (SRB), MCF7; format: cell-based; conditions: Homo sapiens; MCF7, Breast Cancer; single dose of 10 μM; read-out: Cell Growth Percent
[18] = system: RPMI-8226; experiment: NCI 60 cell line panel (SRB), RPMI-8226; format: cell-based; conditions: Homo sapiens; RPMI-8226, Leukemia; single dose of 10 μM; read-out: Cell Growth Percent
[19] = system: HCT-116; experiment: NCI 60 cell line panel (SRB), HCT-116; format: cell-based; conditions: Homo sapiens; HCT-116, Colon Cancer; single dose of 10 μM; read-out: Cell Growth Percent
[20] = system: NCI-H522; experiment: NCI 60 cell line panel (SRB), NCI-H522; format: cell-based; conditions: Homo sapiens; NCI-H522, Non-Small Cell Lung Cancer; single dose of 10 μM; read-out: Cell Growth Percent
[21] = system: SK-MEL-5; experiment: NCI 60 cell line panel (SRB), SK-MEL-5; format: cell-based; conditions: Homo sapiens; SK-MEL-5, Melanoma; single dose of 10 μM; read-out: Cell Growth Percent
[22] = system: OVCAR-5; experiment: NCI 60 cell line panel (SRB), OVCAR-5; format: cell-based; conditions: Homo sapiens; OVCAR-5, Ovarian Cancer; single dose of 10 μM; read-out: Cell Growth Percent
[23] = system: HS 578T; experiment: NCI 60 cell line panel (SRB), HS 578T; format: cell-based; conditions: Homo sapiens, Breast Cancer, single dose of 10 μM, read-out: Cell Growth Percent
[24] = system: 786-0; experiment: NCI 60 cell line panel (SRB), 786-0; format: cell-based; conditions: Homo sapiens; 786-0, Renal Cancer; single dose of 10 μM; read-out: Cell Growth Percent
[25] = system: NCI-H322M; experiment: NCI 60 cell line panel (SRB), NCI-H322M; format: cell-based; conditions: Homo sapiens, Non-Small Cell Lung Cancer, single dose of 10 μM, read-out: Cell Growth Percent
[26] = system: SK-MEL-28; experiment: NCI 60 cell line panel (SRB), SK-MEL-28; format: cell-based; conditions: Homo sapiens; SK-MEL-28, Melanoma; single dose of 10 μM; read-out: Cell Growth Percent
[27] = system: HCT-15; experiment: NCI 60 cell line panel (SRB), HCT-15; format: cell-based; conditions: Homo sapiens; HCT-15, Colon Cancer; single dose of 10 μM; read-out: Cell Growth Percent
[28] = system: NCI/ADR-RES; experiment: NCI 60 cell line panel (SRB), NCI/ADR-RES; format: cell-based; conditions: Homo sapiens, Ovarian Cancer, single dose of 10 μM, read-out: Cell Growth Percent
[29] = system: NCI-H226; experiment: NCI 60 cell line panel (SRB), NCI-H226; format: cell-based; conditions: Homo sapiens; NCI-H226, Non-Small Cell Lung Cancer; single dose of 10 μM; read-out: Cell Growth Percent
[30] = system: NCI-H460; experiment: NCI 60 cell line panel (SRB), NCI-H460; format: cell-based; conditions: Homo sapiens; NCI-H460, Non-Small Cell Lung Cancer; single dose of 10 μM; read-out: Cell Growth Percent
[31] = system: HL-60(TB); experiment: NCI 60 cell line panel (SRB), HL-60(TB); format: cell-based; conditions: Homo sapiens, Leukemia, single dose of 10 μM, read-out: Cell Growth Percent
[32] = system: SK-OV-3; experiment: NCI 60 cell line panel (SRB), SK-OV-3; format: cell-based; conditions: Homo sapiens; SK-OV-3, Ovarian Cancer; single dose of 10 μM; read-out: Cell Growth Percent
[33] = system: SNB-75; experiment: NCI 60 cell line panel (SRB), SNB-75; format: cell-based; conditions: Homo sapiens; SNB-75, CNS Cancer; single dose of 10 μM; read-out: Cell Growth Percent
[34] = system: SF-539; experiment: NCI 60 cell line panel (SRB), SF-539; format: cell-based; conditions: Homo sapiens; SF-539, CNS Cancer; single dose of 10 μM; read-out: Cell Growth Percent

T1 sequence (P35968 20-1356): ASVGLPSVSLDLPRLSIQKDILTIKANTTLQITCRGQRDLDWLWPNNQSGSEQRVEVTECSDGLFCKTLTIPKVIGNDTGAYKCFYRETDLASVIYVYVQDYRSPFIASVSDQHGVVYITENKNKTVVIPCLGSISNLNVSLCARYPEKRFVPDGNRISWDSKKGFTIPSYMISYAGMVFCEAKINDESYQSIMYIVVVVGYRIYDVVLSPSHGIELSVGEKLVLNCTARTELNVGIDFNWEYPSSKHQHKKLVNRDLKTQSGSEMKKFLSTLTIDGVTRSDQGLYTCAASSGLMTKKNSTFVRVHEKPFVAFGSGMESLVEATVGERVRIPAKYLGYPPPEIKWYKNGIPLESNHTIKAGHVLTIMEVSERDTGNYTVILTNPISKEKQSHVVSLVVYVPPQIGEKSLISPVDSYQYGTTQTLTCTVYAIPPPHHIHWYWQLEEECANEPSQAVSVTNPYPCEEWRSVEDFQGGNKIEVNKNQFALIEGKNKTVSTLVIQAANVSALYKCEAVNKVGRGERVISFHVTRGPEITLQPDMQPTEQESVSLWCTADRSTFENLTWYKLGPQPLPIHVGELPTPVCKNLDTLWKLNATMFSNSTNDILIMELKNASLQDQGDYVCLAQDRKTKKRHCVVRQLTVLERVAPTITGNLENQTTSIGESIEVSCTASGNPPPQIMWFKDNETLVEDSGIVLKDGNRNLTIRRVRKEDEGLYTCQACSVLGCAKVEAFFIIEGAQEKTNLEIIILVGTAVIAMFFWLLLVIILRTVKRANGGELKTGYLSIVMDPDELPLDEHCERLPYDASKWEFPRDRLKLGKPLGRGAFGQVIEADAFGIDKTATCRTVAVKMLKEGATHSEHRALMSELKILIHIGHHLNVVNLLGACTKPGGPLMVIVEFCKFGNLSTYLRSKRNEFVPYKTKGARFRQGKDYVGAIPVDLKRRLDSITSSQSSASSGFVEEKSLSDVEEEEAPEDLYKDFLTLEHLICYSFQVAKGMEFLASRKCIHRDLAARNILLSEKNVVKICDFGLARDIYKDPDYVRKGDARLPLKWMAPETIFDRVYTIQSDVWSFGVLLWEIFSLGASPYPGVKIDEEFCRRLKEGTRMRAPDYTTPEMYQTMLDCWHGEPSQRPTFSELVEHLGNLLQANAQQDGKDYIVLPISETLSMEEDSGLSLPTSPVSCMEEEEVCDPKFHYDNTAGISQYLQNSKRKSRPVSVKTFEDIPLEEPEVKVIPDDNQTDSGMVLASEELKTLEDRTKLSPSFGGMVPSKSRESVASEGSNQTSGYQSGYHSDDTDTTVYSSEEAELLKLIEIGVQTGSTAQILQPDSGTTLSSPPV

Structure (SMILES): CCOC(=O)c1c(C)oc2ncnc(Nc3ccc(C(=O)Nc4cccc(Cl)c4)cc3)c12 [Compound 14a]
- activity at 10 µM [1]: 92.4%
- activity at 10 µM [2]: 105%
- inhibition at 10 µM [3]: 5%
- activity at 10 µM [4]: 95.2%
- activity at 10 µM [5]: 122%
- activity at 10 µM [6]: 99.2%
- activity at 10 µM [7]: 110%
- activity at 10 µM [8]: 95.8%
- activity at 10 µM [9]: 99.8%
- activity at 10 µM [10]: 106%
- activity at 10 µM [11]: 102%
- activity at 10 µM [12]: 115%
- activity at 10 µM [13]: 83.6%
- activity at 10 µM [14]: 74.8%
- activity at 10 µM [15]: 94%
- activity at 10 µM [16]: 102%
- activity at 10 µM [17]: 90.6%
- activity at 10 µM [18]: 94.6%
- activity at 10 µM [19]: 85.5%
- activity at 10 µM [20]: 78%
- activity at 10 µM [21]: 92.2%
- activity at 10 µM [22]: 116%
- activity at 10 µM [23]: 107%
- activity at 10 µM [24]: 96.3%
- activity at 10 µM [25]: 99.7%
- activity at 10 µM [26]: 105%
- activity at 10 µM [27]: 108%
- activity at 10 µM [28]: 99.4%
- activity at 10 µM [29]: 97%
- activity at 10 µM [30]: 100%
- activity at 10 µM [31]: 105%
- activity at 10 µM [32]: 112%
- activity at 10 µM [33]: 105%
- activity at 10 µM [34]: 107%

Structure (SMILES): O=C(Nc1ccccc1)Nc1ccc(Nc2ncnc3sc4c(c23)CCCC4)cc1 [Compound 20a]
- activity at 10 µM [1]: 83.3%
- activity at 10 µM [2]: 95.3%
- inhibition at 10 µM [3]: 39%
- activity at 10 µM [4]: 103%
- activity at 10 µM [5]: 102%
- activity at 10 µM [6]: 100%
- activity at 10 µM [7]: 103%
- activity at 10 µM [8]: 91.6%
- activity at 10 µM [9]: 114%
- activity at 10 µM [10]: 112%
- activity at 10 µM [11]: 95.9%
- activity at 10 µM [12]: 102%
- activity at 10 µM [13]: 96.1%
- activity at 10 µM [14]: 97.8%
- activity at 10 µM [15]: 89.4%
- activity at 10 µM [16]: 102%
- activity at 10 µM [17]: 96.2%
- activity at 10 µM [18]: 99.2%
- activity at 10 µM [19]: 114%
- activity at 10 µM [20]: 92.9%
- activity at 10 µM [21]: 97.3%
- activity at 10 µM [22]: 119%
- activity at 10 µM [23]: 85.3%
- activity at 10 µM [24]: 110%
- activity at 10 µM [25]: 106%
- activity at 10 µM [26]: 116%
- activity at 10 µM [27]: 110%
- activity at 10 µM [28]: 107%
- activity at 10 µM [29]: 89.8%
- activity at 10 µM [30]: 104%
- activity at 10 µM [31]: 97%
- activity at 10 µM [32]: 99.5%
- activity at 10 µM [33]: 93.3%
- activity at 10 µM [34]: 104%

Structure (SMILES): COc1cccc(NC(=O)Nc2ccc(Nc3ncnc4sc5c(c34)CCCC5)cc2)c1 [Compound 20c]
- activity at 10 µM [1]: 91.3%
- activity at 10 µM [2]: 118%
- inhibition at 10 µM [3]: 67%
- activity at 10 µM [4]: 89.8%
- activity at 10 µM [5]: 79.9%
- activity at 10 µM [6]: 97%
- activity at 10 µM [7]: 99.1%
- activity at 10 µM [8]: 89%
- activity at 10 µM [9]: 116%
- activity at 10 µM [10]: 98.5%
- activity at 10 µM [11]: 95.2%
- activity at 10 µM [12]: 99%
- activity at 10 µM [13]: 104%
- activity at 10 µM [14]: 84.6%
- activity at 10 µM [15]: 81.3%
- activity at 10 µM [16]: 89.6%
- activity at 10 µM [17]: 86.2%
- activity at 10 µM [18]: 102%
- activity at 10 µM [19]: 91%
- activity at 10 µM [20]: 81.2%
- activity at 10 µM [21]: 92.3%
- activity at 10 µM [22]: 106%
- activity at 10 µM [23]: 74.4%
- activity at 10 µM [24]: 100%
- activity at 10 µM [25]: 98.8%
- activity at 10 µM [26]: 93.3%
- activity at 10 µM [27]: 97.8%
- activity at 10 µM [28]: 106%
- activity at 10 µM [29]: 90.1%
- activity at 10 µM [30]: 106%
- activity at 10 µM [31]: 91.1%
- activity at 10 µM [32]: 88.4%
- activity at 10 µM [33]: 62.7%
- activity at 10 µM [34]: 60.2%

Structure (SMILES): O=C(Nc1ccc(Nc2ncnc3sc4c(c23)CCCC4)cc1)Nc1cccc(Cl)c1 [Compound 20d]
- activity at 10 µM [1]: 86.7%
- activity at 10 µM [2]: 103%
- inhibition at 10 µM [3]: 19%
- activity at 10 µM [4]: 99.3%
- activity at 10 µM [5]: 97.9%
- activity at 10 µM [6]: 97.2%
- activity at 10 µM [7]: 110%
- activity at 10 µM [8]: 101%
- activity at 10 µM [9]: 116%
- activity at 10 µM [10]: 104%
- activity at 10 µM [11]: 108%
- activity at 10 µM [12]: 96.8%
- activity at 10 µM [13]: 87.8%
- activity at 10 µM [14]: 102%
- activity at 10 µM [15]: 92.3%
- activity at 10 µM [16]: 96.9%
- activity at 10 µM [17]: 91.9%
- activity at 10 µM [18]: 106%
- activity at 10 µM [19]: 112%
- activity at 10 µM [20]: 92.1%
- activity at 10 µM [21]: 98.1%
- activity at 10 µM [22]: 108%
- activity at 10 µM [23]: 103%
- activity at 10 µM [24]: 103%
- activity at 10 µM [25]: 104%
- activity at 10 µM [26]: 104%
- activity at 10 µM [27]: 104%
- activity at 10 µM [28]: 113%
- activity at 10 µM [29]: 103%
- activity at 10 µM [30]: 110%
- activity at 10 µM [31]: 98.9%
- activity at 10 µM [32]: 98.6%
- activity at 10 µM [33]: 94.4%
- activity at 10 µM [34]: 90.8%
